{"source": "paper PMC3753236", "about": "“Glucocorticosteroids in Nano-Sterically Stabilized Liposomes Are Efficacious for Elimination of the Acute Symptoms of Experimental Cerebral Malaria” (PLoS ONE, 2013)", "key": {"[1]": {"details": "cited from earlier work"}, "[2]": {"system": "non-chloroquine resistant P. falciparum", "experiment": "P. falciparum culture, 3H-hypoxanthine incorporation", "assay_type": "cell-based, Plasmodium falciparum", "details": "Plasmodium falciparum", "procedure": "The parasite was grown in a human red blood cell culture (RPMI 1640, 7.5% bicarbonate, 50 µM hypoxanthine, 50 µg/ml gentamycin, and 7.5% human plasma) at 1% hematocrit and 2% parasitemia. Cultures containing predominantly ring forms were used; synchronization of the culture was performed if trophozoites represented more than 1–2% of the various developmental stages. Briefly, the culture was centrifuged and the supernatant replaced by 5% (isotonic) sorbitol. After 5 minutes at 37°C the culture was centrifuged again and the supernatant replaced by culture medium to obtain a final 1% hematocrit.\nDrug testing was performed in 96-well microtiter plates incubated at 37°C in a 5% O2, 5% CO2, and 90% N2 gas mixture for 72 hours. After 48 hours, 1 µCi ^3H-hypoxanthine was added to each well and the plates were read the next day using a scintillation counter."}, "ECM": {"system": "ECM", "design": "method as in Clemmer et al. [28]", "details": "after the appearance of clinical signs of neuropathology; ref Clemmer et al. [28]; cited from earlier work"}, "[3]": {"system": "Plasmodium berghei ANKA (PbA)", "experiment": "Early treatment of experimental cerebral malaria (ECM), ICR mice infected with PbA", "procedure": "(§1) Plasmodium berghei ANKA (PbA; PbA MRA-311, CDC, Atlanta, GA, USA) was maintained in vivo by serial transfer of parasitized erythrocytes (PE) from infected to naïve mice. Experiments were also performed using a second strain of PbA, similarly maintained, and designated PbAus in the text (courtesy of Prof. G. Grau, University of Sydney, Australia).\n(§2) Parasitemia was monitored by thin blood smears prepared from tail blood. These were stained with a 25% Giemsa solution, examined under a light microscope, and parasitemia determined as the percent of infected red blood cells per 10,000 erythrocytes. Disease severity was determined according to scoring of neurological symptoms and changes in weight and temperature, as previously described […] Parasitemias above 20% and the absence of neurological symptoms indicated severe anemic malaria.\nFor early ECM treatment, injections were given on days 3, 5, 7, and 9 p.i; for late treatment, treatment was given every other day, starting on day 5 p.i. for a total of at least two injections. Infected, non-treated control mice were injected with 5% dextrose or empty nSSL. Clinical signs and parasitemias were monitored and disease severity scored as described […] Surviving mice were treated with 2×10 mg/kg/d artemisone by intraperitoneal injection in order to achieve cure; mice were monitored for four weeks post-artemisone treatment in order to allow detection of possible late recrudescence. […] At each time-point, at least 3 mice from each group were chosen at random, deeply anesthetized, and brains were removed following intracardial perfusion (using saline, if organs were destined for real-time (rt)PCR analysis, or saline/formalin, if organs were destined for histopathological analysis). Organs destined for rtPCR analysis were snap-frozen in liquid nitrogen and stored at −80°C until use. Organs destined for immunohistology were immediately immersed in cryoprotectant solution (see below)."}, "[4]": {"system": "Plasmodium berghei ANKA (PbAus)", "experiment": "Late-stage treatment of ECM followed by artemisone, PbAus-infected C57Bl/6 mice", "procedure": "as §1, §2\n(§3) For early ECM treatment, injections were given on days 3, 5, 7, and 9 p.i; for late treatment, treatment was given every other day, starting on day 5 p.i. for a total of at least two injections. Infected, non-treated control mice were injected with 5% dextrose or empty nSSL. Clinical signs and parasitemias were monitored and disease severity scored as described […] At each time-point, at least 3 mice from each group were chosen at random, deeply anesthetized, and brains were removed following intracardial perfusion (using saline, if organs were destined for real-time (rt)PCR analysis, or saline/formalin, if organs were destined for histopathological analysis). Organs destined for rtPCR analysis were snap-frozen in liquid nitrogen and stored at −80°C until use. Organs destined for immunohistology were immediately immersed in cryoprotectant solution (see below)."}, "[5]": {"system": "Plasmodium berghei ANKA (PbAus)", "experiment": "Early treatment of ECM, PbAus-inoculated C57Bl/6 mice (with sequential artemisone)", "procedure": "as §1, §2, §3"}, "[6]": {"details": "72 h culture, 3H-hypoxanthine, read-out: IC50"}}, "note": "Where a name gives a salt, the structure may show the parent alone. Read-outs that look alike come from different tables or passages of the source."}
{"smiles": "C[C@H]1C[C@H]2[C@@H]3CCC4=CC(=O)C=C[C@]4(C)[C@@]3(F)[C@@H](O)C[C@]2(C)[C@@]1(O)C(=O)CO", "note": "[β-methasone]", "values": [{"measurement": "Potency relative to hydrocortisone", "setting": "[1]; ref [15]", "value": "25–30 fold"}]}
{"smiles": "C[C@@H]1CC[C@H]2[C@@H](C)C(=O)O[C@@H]3O[C@@]4(C)CC[C@@H]1[C@]32OO4", "note": "[Artemisinin]", "values": [{"measurement": "IC50", "setting": "[2]; [6]", "value": 0.13, "unit": "nM"}]}
{"smiles": "CO[C@H]1O[C@@H]2O[C@@]3(C)CC[C@H]4[C@H](C)CC[C@@H]([C@H]1C)[C@@]24OO3", "note": "[artemether]", "values": [{"measurement": "Success rate of ECM rescue therapy", "setting": "ECM", "value": "43–46%"}]}
{"smiles": "CCN(CC)CCCC(C)Nc1ccnc2cc(Cl)ccc12", "note": "(stereo not shown) [Chloroquine, chloroquine]", "values": [{"measurement": "IC50", "setting": "[2]", "value": 40, "unit": "nM"}]}
{"smiles": "C[C@H]1[C@H](OC(=O)CCC(=O)O)O[C@@H]2O[C@@]3(C)CC[C@H]4[C@H](C)CC[C@@H]1[C@@]24OO3", "note": "[artesunate]", "values": [{"measurement": "Success rate of ECM rescue therapy", "setting": "ECM", "value": "43–46%"}]}
{"smiles": "C[C@H]1[C@@H](O)O[C@@H]2O[C@@]3(C)CC[C@H]4[C@H](C)CC[C@@H]1[C@@]24OO3", "note": "[Dihydroartemisinin, dihydroartemisinin]", "values": [{"measurement": "IC50", "setting": "[2]; [6]", "value": 0.1, "unit": "nM"}]}
{"smiles": "C[C@H]1C[C@@H]2[C@H]([C@@H](O)C[C@@]3(C)[C@H]2CC[C@]3(O)C(=O)COC(=O)CCC(=O)O)[C@@]2(C)C=CC(=O)C=C12", "note": "[MPS, methylprednisolone hemisuccinate sodium salt]", "values": [{"measurement": "IC50", "setting": "[2]; [6]", "value": 14000, "unit": "nM"}, {"measurement": "Survival rate on day 11", "setting": "[3]; 10 mg/kg/d on days 3, 5, 7, 9 p.i.", "value": 33, "unit": "%"}, {"measurement": "Toxicity in ECM mice", "setting": "[3]; 25 mg/kg/d, preliminary experiments", "value": "mild toxicity"}, {"measurement": "Potency relative to hydrocortisone", "setting": "[1]; ref [14]", "value": "~5", "unit": "times"}]}
{"smiles": "C=C[C@H]1C[N@@]2CC[C@H]1C[C@H]2[C@H](O)c1ccnc2ccc(OC)cc12", "note": "[Quinine, quinine]", "values": [{"measurement": "IC50", "setting": "[2]; [6]", "value": 380, "unit": "nM"}]}
{"smiles": "C[C@H]1[C@H](N2CCS(=O)(=O)CC2)O[C@@H]2O[C@@]3(C)CC[C@H]4[C@H](C)CC[C@@H]1[C@@]24OO3", "note": "[Artemisone, reference compound]", "values": [{"measurement": "IC50", "setting": "[2]; [6]", "value": 0.4, "unit": "nM"}, {"measurement": "Outcome of artemisone after nSSL-BMS started day 5 p.i.", "setting": "[4]; 2×20 mg/kg/d artemisone on days 11–15 p.i., monitored three weeks", "value": "complete cure"}, {"measurement": "Outcome of artemisone after nSSL-BMS started day 7 p.i.", "setting": "[4]; all remaining mice died of severe anemic malaria", "value": "ineffective"}, {"measurement": "Outcome of artemisone after nSSL-BMS started day 6 p.i.", "setting": "[4]; subsequent artemisone administration", "value": "cure in all mice"}, {"measurement": "Outcome of artemisone treatment following nSSL-BMS", "setting": "[5]; 2×20 mg/kg artemisone i.p. days 11–15 p.i. after early 10 mg/kg nSSL-BMS, monitored four weeks for recrudescence", "value": "complete cure"}, {"measurement": "Time to zero parasitemia after the first injection (majority of cases)", "setting": "[5]; 2×20 mg/kg artemisone i.p. days 11–15 p.i. following early 10 mg/kg nSSL-BMS", "value": "≤ 24", "unit": "h"}, {"measurement": "Mice that relapsed and died of ECM (of the total 17 administered artemisone)", "setting": "[5]; 2×20 mg/kg/d artemisone days 11–15 p.i. after 10 mg/kg free or nSSL-BMS", "value": "One"}, {"measurement": "Outcome of artemisone monotherapy", "setting": "[5]; beginning on day 11 p.i.", "value": "ineffective"}]}
